From patent publication US9878982B2, “Pyridine derivatives and anti-mycobacterial use thereof” (priority 2014, dated 2018) come the findings set out here.

Structures are written as SMILES. Values after ≈ are worked out from the molar mass of the structure shown.

Assay [1] has as its system rifampicin-resistant M. tuberculosis strain (rRMP). Briefly: microbe, parasite or virus in culture. Format: cell-based, Mycobacterium tuberculosis. To be noted: for MIC: Mycobacterium tuberculosis, read-out: MABA MIC vs. rRMP, rifampicin-resistant M. tuberculosis strain; for MIC / MABA MIC vs. rRMP: two values per compound; for MABA MIC vs. rRMP: rifampicin-resistant M. tuberculosis strain. Background: The colour change of resazurin is a common sign of viable cells or microbes.

For assay [2], the system named is isoniazide-resistant Mycobacterium tuberculosis strains (rINH). Briefly: microbe, parasite or virus in culture. Particulars: for MIC: Mycobacterium tuberculosis, read-out: MABA MIC vs. rINH, isoniazide-resistant strain; for MIC / MABA MIC vs. rINH: two values per compound; for MABA MIC vs. rINH: isoniazide-resistant strain. Format: cell-based.

In the case of `COc1nc2ccc(Br)cc2cc1[C@@H](c1ccccc1)[C@@](O)(CCN(C)C)c1cccc2ccccc12` [Bedaquiline, reference compound], in assay [1], the MIC stood at 0.12 µM (≈ 0.0667 µg/mL) and the “MABA MIC vs. rRMP” value was 0.13 µM. Further, in assay [2], the MIC stood at 0.07 µM (≈ 0.0389 µg/mL) and the “MABA MIC vs. rINH” value is 0.09 µM.
On the same counts, the results for `COc1ncc(-c2ccccc2)cc1C(c1ccccc1)C(O)(CCN(C)C)c1cccc2ccccc12` (stereo not drawn) [Compound 9, 4-(dimethylamino)-1-(2-methoxy-5-phenylpyridin-3-yl)-2-(naphthalen-1-yl)-1-phenylbutan-2-ol] are 0.9 µM (≈ 0.452 µg/mL), 0.91 µM, 0.47 µM (≈ 0.236 µg/mL) and 0.44 µM.
For the compound `COc1ncc(-c2ccc(Cl)cc2)cc1C(c1ccccc1)C(O)(CCN(C)C)c1cccc2ccccc12` (stereo not drawn) [Compound 115, 1-(5-(4-chlorophenyl)-2-methoxypyridin-3-yl)-4-(dimethylamino)-2-(naphthalen-1-yl)-1-phenylbutan-2-ol], in assay [1], the “inhibitory activity against rifampin-resistant strain (in words)” value is on record as “comparable to that of the marketed anti-TB drug, Bedaquiline” and the MIC was 0.18 µM (≈ 0.0967 µg/mL). Moreover, in assay [2], the “inhibitory activity against isoniazid-resistant strain (in words)” value was “comparable to that of the marketed anti-TB drug, Bedaquiline”; the MIC was 0.11 µM (≈ 0.0591 µg/mL); the “MABA MIC vs. rINH” value stood at 0.12 µM.
Take `COc1ncc(-c2ccc(Br)cc2)cc1C(c1ccccc1)C(O)(CCN(C)C)c1cccc2ccccc12` (stereo not drawn) [Compound 133, 1-(5-(4-bromophenyl)-2-methoxypyridin-3-yl)-4-(dimethylamino)-2-(naphthalen-1-yl)-1-phenylbutan-2-ol]: in assay [1], the “inhibitory activity against rifampin-resistant strain (in words)” value is given as “comparable to that of the marketed anti-TB drug, Bedaquiline”; the MIC is 0.24 µM (≈ 0.14 µg/mL); the “MABA MIC vs. rRMP” value was 0.34 µM. Moreover, in assay [2], the “inhibitory activity against isoniazid-resistant strain (in words)” value is recorded as “comparable to that of the marketed anti-TB drug, Bedaquiline”; the MIC worked out at 0.22 µM (≈ 0.128 µg/mL); the “MABA MIC vs. rINH” value was 0.12 µM.
Take `NNC(=O)c1ccncc1` [isoniazide, isoniazid, reference compound]: in assay [1], the MIC amounted to 0.83 µM (≈ 0.114 µg/mL) and the “MABA MIC vs. rRMP” value amounted to 0.65 µM. For the same compound, in assay [2], the MIC is more than 8 µM.
In the case of `CO[C@H]1/C=C/O[C@@]2(C)Oc3c(C)c(O)c4c(O)c(c(/C=N/N5CCN(C)CC5)c(O)c4c3C2=O)NC(=O)/C(C)=C\C=C\[C@H](C)[C@H](O)[C@@H](C)[C@@H](O)[C@@H](C)[C@H](OC(C)=O)[C@@H]1C` [rifampin, reference compound], the MIC is more than 4 µM in assay [1] and less than 0.016 µM in assay [2].
